{
  "source": "patent US20250090567A1",
  "about": "“5-FU AND RNAOG COMBINED IMMUNOCHEMOTHERAPY FOR PANCREATIC CANCER TREATMENT” (ARIZONA BOARD OF REGENTS ON BEHALF OF ARIZONA STATE …, priority 2022, published 2025)",
  "system": "MiaPaca-2-iRFP tumors",
  "assay": "In vivo efficacy, subcutaneous MiaPaca-2-iRFP xenograft, intratumor treatment",
  "settings": "nude mice, twice a week, total 7 times",
  "procedure": "FIG. 4A. schematic illustration of tumor inoculation and treatment schedule. Nude mice received subcutaneous (SC) injection of […] MiaPaca2-iRFP on day 0. Starting on week 4, the mice received intratumor injections of PBS, 5FU, RNAOG, RNAOG+5FU, or 5FU-RNAOG twice a week for total 7 times.\nFIG. 4B. Tumor progression monitored by LI-COR Imaging of near infrared fluorescence intensity from the MiaPaca2-iRFP cell line that expresses iRFP.\nFIG. 4C. Tumor dimensions were also measured for each treatment.\nFIG. 4D. The survival curve of each treatment group. **and***indicate p<0.01 and p<0.001, respectively.\nThe in vitro tumor cell suppression effect of 5FU-RNAOG justified further investigation as to whether the combination of the RNAOG with the anticancer drug 5-fluorouracil (5FU) exerts anti-tumor activity in vivo. The human pancreatic cancer cell line, MiaPaca-2, was used as the model because it forms solid tumors in nude mice upon subcutaneous injection (SC). Specifically, MiaPaca-2 cells were engineered to express near infrared fluorescent protein (iRFP) which allows for real-time monitoring of tumor growth of live animals, especially when the tumor load is low. […] Tumor progression was monitored via the fluorescent intensity of iRFP (FIG. 4B), as well as the directly measured tumor size (FIG. 4C). […]",
  "data": [
    {"molecule": "O=c1[nH]cc(F)c(=O)[nH]1", "note": "[5FU, 5-fluorouracil]", "values": [
      {"measurement": "tumor progression (iRFP fluorescence intensity and tumor size)", "value": "developed large tumors"}
    ]}
  ]
}
